Reference: patent US5629198A (priority 1991, dated 1997)

Legend:
[1] = tested on: cells persistently infected with HIV; conditions: cited from earlier work
HTLV-IIIB in MT-4 cells = experiment: Anti-HIV effect: TCID50 of infectious virus from infected MT-4 cells (Test Example 5); assay type: cell-based, HIV (HTLV-IIIB); conditions: for TCID50 (quantity of infectious virus): 4 days, positive control 3.31 × 10^7; for proliferation inhibiting effect on HIV: summary
Procedure: The inhibitory effects of test substances on the cytopathy and HIV antigen production of MT-4 cells due to HIV infection were determined.
MT-4 cells belonging to a cell strain persistently infected with HTLV-1 are high in sensitivity to HIV and promptly die out when infected. MT-4/HIV cells which are MT-4 cells infected with HIV are used for screening anti-HIV agents making good use of this nature.
After MT-4 cells (1.2×10^7 cells) were infected for 2 hours at 37° C. with 3.2 ml of HTLV-IIIB (10^7 TCID50 /ml) obtained from a culture supernatant of a cell strain persistently infected with HIV, i.e., […], the cells were washed. After the cells were then inoculated on a 48-well microplate in a proportion of 1×10^5 cells/well, the test substances were separately added in an amount of 100 μl. As a negative control, there was used a culture obtained by adding 3.2 ml of a culture supernatant after culturing MOLT-4 cells for 3 days to MT-4 cells (4.7×10^6 cells), conducting culture for 2 hours at 37° C., washing the cells in the same manner as described above, inoculating them in a proportion of 1×10^5 cells/well and adding PBS in place of the test substances.
Upon elapsed time of 4 days after the culture, each supernatant was assayed on a P24gag protein based on an EIA kit produced by Abbott Labs, and the number of living cells was counted by the Trypan Blue dye exclusion method, and moreover, TCID50 indicative of an actual quantity of infectious virus was calculated.

MOLT-4/ARV = experiment: Killing effect on cells persistently infected with HIV (Test Example 1), trypan blue; assay type: cell-based, human; conditions: 3 days
Procedure: (§1) The cell killing effects of test substances were determined using a cell strain persistently infected with HIV in MOLT-4 cells and MOLT-4 cells.
(§2) MOLT4/HTLV-IIIB, MOLT4/ARV and MOLT4 cell strains were separately inoculated in proportions of 4×10^4 cells/well (200 μl) on a 96-well plate, and the above test substances in various concentrations were separately added in an amount of 20 μl thereto. After each cell sample was cultured for 3 days at 37° C. in the presence of 5% CO2, the culture was diluted to a triple or quadruple amount, thereby counting the number of living cells by a trypan blue dye exclusion test. As a control, 20 μl of PBS were added in place of each test substance. Each numerical value is expressed in terms of the percentage of living cells to the control.

MOLT-4/HTLV-IIIB = experiment: as above; assay type: cell-based, human; conditions: for killing effect on HIV-infected cells: summary
Procedure: as §1, §2

[2] = in vivo; cited from earlier work
[3] = tested on: Molt-4/C18 cells infected with Molt-4/HTLV-IIIB culture supernatant; experiment: Inhibiting effect on cytopathy, MTT assay (Test Example 8 (2)); assay type: cell-based; conditions: Homo sapiens, MOLT-4, 96 h, read-out: Number of living cells
Procedure: (2) The inhibiting effects of test substances on the formation of multinucleated giant cells and on cytopathy in a Molt-4/C18 cell-infected system were investigated.
Molt-4/C18 cells in a logarithmic growth phase were inoculated in a proportion of 2×10^4 cells/well (20 μl) on a 96-well flat-bottom plate, and 30 μl of a culture supernatant of Molt-4/HTLV-IIIB cells were added. Then, solutions of the test substances in various concentrations were separately added in an amount of 50 μl, followed by their culture at 37° C. under conditions of 5% CO2. To wells for a positive control, 50 μl of a culture medium were added in place of the solution of each test substance, while to wells for a negative control, 30 μl of the culture medium were added instead of the culture supernatant. Defining the day the culture was started as Day 0, the culture was continuously conducted for 4 days to observe a state of formation of multinucleated giant cells and to count the number of living cells by the MTT assay.

MOLT-4 = experiment: Killing effect on uninfected cells (Test Example 1), trypan blue; assay type: cell-based, human; conditions: 3 days
Procedure: as §1, §2

MT-4/LAV-infected system = conditions: cited from earlier work
[4] = Homo sapiens, MOLT-4, 72 h, 1 μM, read-out: living cells (percentage to the control)

Cc1cn([C@H]2C[C@H](N=[N+]=[N-])[C@@H](CO)O2)c(=O)[nH]c1=O [AZT, 3'-azido-3'-deoxythymidine]
effect on cells already infected with HIV [1]: no effect on cells already infected with HIV
TCID50 (quantity of infectious virus) (HTLV-IIIB in MT-4 cells; 1 μM): 5.94 × 10^4 TCID50 /ml
viability at 1 µM (MOLT-4/ARV; [4]): 82%
viability at 1 µM (MOLT-4/HTLV-IIIB; Homo sapiens, MOLT-4, 72 h, 1 μM, 3 days, read-out: living cells (percentage to the control)): 71%
side effects [2]: a myelodepresant effect is remarkably observed as a side effect in addition to headache and gastrointestinal disorders
viability at 25 µM ([3]; 25 (μM), 4 days, positive control 27): 84%
viability at 0.004 µM [3]: 42%
viability at 0.02 µM [3]: 69%
viability at 0.1 µM [3]: 79%
viability at 0.5 µM [3]: 84%
viability at 1 µM (MOLT-4; [4]): 55%

C=CC1=C(C)c2cc3[n-]c(cc4[n-]c(cc5nc(cc1n2)C(C)=C5C=C)c(C)c4CCC(=O)O)c(CCC(=O)O)c3C.[Cl-].[Fe+3] [Hemin]
TCID50 (quantity of infectious virus) (HTLV-IIIB in MT-4 cells; 10 μM): 1.52 × 10^7 TCID50 /ml
proliferation inhibiting effect on HIV (HTLV-IIIB in MT-4 cells): have a proliferation inhibiting effect on HIV
living cells (percentage to the control) (MOLT-4/ARV; 10 μM): 94%
living cells (percentage to the control) (MOLT-4/ARV; 40 μM): 93%
living cells (percentage to the control) (MOLT-4/HTLV-IIIB; 10 μM, 3 days): 100%
living cells (percentage to the control) (MOLT-4/HTLV-IIIB; 40 μM, 3 days): 90%
killing effect on HIV-infected cells (MOLT-4/HTLV-IIIB): no killing effect on HIV-infected cells
living cells (percentage to the control) (MOLT-4; 10 μM): 98%
living cells (percentage to the control) (MOLT-4; 40 μM): 99%

C=CC1=C(C)c2cc3[nH]c(cc4nc(cc5[nH]c(cc1n2)c(C)c5CCC(=O)O)C(CCC(=O)O)=C4C)c(C)c3C=C [protoporphyrin]
proliferation inhibiting effect on HIV (HTLV-IIIB in MT-4 cells): have a proliferation inhibiting effect on HIV
killing effect on HIV-infected cells (MOLT-4/HTLV-IIIB): no killing effect on HIV-infected cells
anti-HIV activity (MT-4/LAV-infected system): exhibits an anti-HIV activity
